Series [1] can be described thus: Production of reaction product using photoreactive composition including compound (2) (Test Example 12). The note with it: 365 nm, up to 10000 mJ/cm^2, post-bake 160° C. 20 minutes. As for the experimental part: Polyglycidylmethyl acrylate (PGMA, 0.1 g, molecular weight; 22000) showing the structure above, the compound (2) (0.005 g) and tetrahydrofuran (1 g) were blended and stirred at 25° C. for 1 minute to obtain a photoreactive composition.
The photoreactive compositions obtained above was applied onto a silicon wafer by a spin coating method under the conditions of 1500 rpm and 30 seconds. Next, after heating (pre-baking) this coating film (photoreactive composition layer) at 100° C. for 1 minutes, using a Hg—Xe lamp, the coating film was irradiated with light having a wavelength of 365 nm with an illuminance of 50 mW/cm^2 and the exposure doses of 0 mJ/cm^2 to 10000 mJ/cm^2. After light irradiation, the coating film was heated (post-baked) 160° C. for 20 minutes. The coating film after heated was developed with tetrahydrofuran for 30 seconds, and then the ratio of the thickness of the coating film after development to the coating film before light irradiation was measured.

Series [2] in a line: Behavior of compound in methanol under light irradiation with wavelength of 313 nm or 365 nm (absorbance; Test Examples 1, 2, 8, 9). In kind it is physicochemical. The note with it: 2.0×10^−5 mol/L; for molar absorption coefficient ε313: 313 nm; for molar absorption coefficient ε365: 365 nm. As for the experimental part: The compound (1)-1 obtained above was dissolved in methanol so as to have a concentration of 2.0×10^−5 mol/L. Then, using a mercury xenon lamp, the illuminance was set to 5 mW/cm^2, the exposure doses were set to 0, 10, 30, 60 and 100 mJ/cm^2, and the obtained methanol solution was irradiated with light having a wavelength of 313 nm. Then, the absorbance of the compound (1)-1 was measured.
The compound (1)-1 obtained above was dissolved in methanol so as to have a concentration of 2.0×10^−5 mol/L. Then, using an LED lamp, the illuminance was set to 10 mW/cm^2, the exposure doses were set to 0, 10, 30, 60 and 100 mJ/cm^2, and the obtained methanol solution was irradiated with light having a wavelength of 365 nm. Then, the absorbance of the compound (1)-1 was measured.
The compound (1)-2 obtained above was dissolved in methanol so as to have a concentration of 2.0×10^−5 mol/L. Then, using a mercury xenon lamp, the illuminance was set to 10 mW/cm^2, the exposure doses were set to 0, 30, 100, 200 and 300 mJ/cm^2, and the obtained methanol solution was irradiated with light having a wavelength of 313 nm. Then, the absorbance of the compound (1)-2 was measured.
The compound (1)-2 obtained above was dissolved in methanol so as to have a concentration of 2.0×10^−5 mol/L. Then, using an LED lamp, the illuminance was set to 10 mW/cm^2, the exposure doses were set to 0, 30, 100, 200 and 300 mJ/cm^2, and the obtained methanol solution was irradiated with light having a wavelength of 365 nm. Then, the absorbance of the compound (1)-2 was measured.

Series [3] can be described thus: Solubility of the compound in solvents (amount of solvent required to dissolve 10 mg). In kind it is physicochemical. As for the experimental part:
Moreover, the solubility of the compound (1)-1 in the solvent was confirmed. Specifically, the amount of the solvent required to dissolve 10 mg of the compound (1)-1 was confirmed for each solvent. The amount of the solvent required was from 1 mL to 5 mL when tetrahydrofuran or acetone was used, and 1 mL or less when cyclopentanone, methanol or dimethyl sulfoxide was used.

Take `O=C(/C=C/c1ccccc1O)NC1CCCCC1` [compound (2)]: the “production of an insolubilized reaction product” value in series [1] is recorded as “could not be produced”.
Regarding `O=C(/C=C/c1ccccc1O)Nc1ccncc1` [compound (1)-1], the “molar absorption coefficient ε313” value in series [2] came out at 23000 L/mol/cm. The “molar absorption coefficient ε365” value in series [2] turned out to be 6900 L/mol/cm. The “amount of the solvent required to dissolve 10 mg” value in series [3] (cyclopentanone), in series [3] (dimethyl sulfoxide) and in series [3] (methanol) was ≤ 1 mL each time.
With `CN(C(=O)/C=C/c1ccccc1O)c1ccncc1` [compound (1)-2], in series [2], the “molar absorption coefficient ε313” value turned out to be 13000 L/mol/cm and the “molar absorption coefficient ε365” value came out at 3200 L/mol/cm.

The record behind these values is patent US12399427B2, “Photobase generator, compound, photoreactive composition and reaction product” (Tokyo University of Science Foundation, priority 2019, dated 2025).
